Drawing on patent US20190031618A1, “BENZIMIDAZOLE DERIVATIVES USEFUL AS CB-1 INVERSE AGONISTS” (Janssen Pharmaceutica NV, priority 2015, published 2019), this text covers EC50 for 36 compounds.

The target of assay [1] is Human CB1R (Cannabinoid receptor 1) (Homo sapiens, UniProt P21554). Nature of the assay: CB-1 in vitro cAMP (HTRF) assay. The class given is cell-based. As to conditions: HEK cells, cAMP HTRF, 250 nM forskolin; mean where tested more than once; read-out: CB1 HEK_cAMP EC50. The essentials: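 Intracellular cAMP from HTRF ratio (d2-cAMP vs Eu-cryptate anti-cAMP), converted to nM via per-plate standards, in stable human CB1R HEK-293 cells.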
Chain of Human CB1R (Cannabinoid receptor 1) (P21554 whole entry): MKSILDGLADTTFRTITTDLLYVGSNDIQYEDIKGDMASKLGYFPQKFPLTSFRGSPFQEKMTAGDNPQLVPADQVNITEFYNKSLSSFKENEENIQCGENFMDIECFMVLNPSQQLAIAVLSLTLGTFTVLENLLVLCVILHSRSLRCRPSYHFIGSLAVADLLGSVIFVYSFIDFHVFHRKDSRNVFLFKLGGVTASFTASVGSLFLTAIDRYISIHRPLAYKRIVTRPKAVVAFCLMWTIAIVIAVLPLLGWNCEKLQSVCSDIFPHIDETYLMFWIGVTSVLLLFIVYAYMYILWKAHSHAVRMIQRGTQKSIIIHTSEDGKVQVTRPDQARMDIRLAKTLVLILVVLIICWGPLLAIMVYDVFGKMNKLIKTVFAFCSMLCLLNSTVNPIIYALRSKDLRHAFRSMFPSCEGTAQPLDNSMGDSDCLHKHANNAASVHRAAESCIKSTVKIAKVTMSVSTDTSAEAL
(In general: Time-resolved FRET reads energy transfer from a long-lived donor to a nearby acceptor.)

The target of assay [2] is Human CB2R (Cannabinoid receptor 2) (Homo sapiens, UniProt P34972). In words: CB-2 in vitro cAMP (HTRF) assay. The class given is cell-based. The following applies: HEK cells, cAMP HTRF, 250 nM forskolin; mean where tested more than once; read-out: CB2 HEK_cAMP EC50. The essentials: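 Competitive HTRF read-out (d2-labelled cAMP vs cryptate antibody) quantifies cAMP in stably transfected HEK-293 cells, seeded the day before at 4E5 cells/mL. Stimulation buffer: HBSS, 5 mM HEPES, 0.1% BSA, 0.5 mM IBMX; forskolin prepared at 1.5 μM in buffer; compounds serially diluted 1/3 in DMSO.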
Chain of Human CB2R (Cannabinoid receptor 2) (P34972 whole entry): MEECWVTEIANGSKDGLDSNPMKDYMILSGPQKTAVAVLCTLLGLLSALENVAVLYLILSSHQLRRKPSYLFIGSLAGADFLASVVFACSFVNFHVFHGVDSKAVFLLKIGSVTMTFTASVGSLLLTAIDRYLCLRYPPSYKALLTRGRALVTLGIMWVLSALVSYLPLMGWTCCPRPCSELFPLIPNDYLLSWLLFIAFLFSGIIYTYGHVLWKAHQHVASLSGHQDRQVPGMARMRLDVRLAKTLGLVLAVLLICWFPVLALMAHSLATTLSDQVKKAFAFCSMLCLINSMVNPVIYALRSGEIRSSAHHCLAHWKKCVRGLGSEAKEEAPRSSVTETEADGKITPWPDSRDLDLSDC

Molecules are shown by their SMILES. Bounds are passed on as bounds.

As usually defined, the EC50 is the midpoint of the concentration-response curve. As for `O=C(O)c1cccc(CN2CCC(n3c(C4CC4)nc4ccc(C(c5ccc(Cl)cc5)c5ccc(C(F)(F)F)cc5)cc43)CC2)c1` (stereo not drawn) [Example 99], the figures for the EC50 in assay [1] and in assay [2] were 0.0188 µM and 4.74 µM, respectively.

With `CC(C)(C)OC(=O)N1CC(c2nc3ccc(C(c4ccc(Cl)cc4)c4nccs4)cc3n2CCc2cccc(Cl)c2)C1` (stereo not drawn) [Example 406], the EC50 was 1.69 µM in assay [1] and > 10 µM in assay [2].

As for `O=C(O)c1ccc(S(=O)(=O)N2CCC(Cn3c(C4CC4)nc4ccc(C(c5ccc(Cl)cc5)c5ccc(Cl)cc5)cc43)CC2)cc1` [Example 15], the EC50 was 0.073 µM in assay [1] and 0.7 µM in assay [2].

Consider `O=C(O)c1cccc(N2CCC(n3c(C4CC4)nc4ccc(C(c5ccc(Cl)cc5)c5ccc(Cl)cc5)cc43)CC2)c1` [Example 163], for which the values for the EC50 in assay [1] and in assay [2] were 0.0916 µM and 7.78 µM, respectively.

Turning to `FC(F)(F)c1csc(C(c2ccc(Cl)cc2)c2ccc3ncn(Cc4ccc(Cl)cc4)c3c2)n1` (stereo not drawn) [Example 462], the EC50 in assay [1] is > 10 µM; in assay [2], > 6.6 µM.

Turning to `O=C(O)C(c1ccc(Cl)cc1)(c1ccc(Cl)cc1)c1ccc2nc(C3CC3)n(C3CCN(S(=O)(=O)C(F)(F)F)CC3)c2c1` [Example 267], the EC50 is 0.007 µM in assay [1] and > 10 µM in assay [2].

As for `C#CCN1CCC(n2c(C3CC3)nc3ccc(C(c4ccc(Cl)cc4)c4ccc(Cl)cc4)cc32)CC1` [Example 76], the figures for the EC50 in assay [1] and in assay [2] were 0.0067 µM and 2.06 µM, respectively.

Consider `Oc1cccc(-n2c(C3CC3)nc3ccc(C(c4ccc(Cl)cc4)c4ccc(Cl)cc4)cc32)c1` [Example 180], for which the values for the EC50 in assay [1] and in assay [2] were 0.0171 µM and > 10 µM, respectively.

With `O=C(O)C(c1ccc(Cl)cc1)(c1ccc(Cl)cc1)c1ccc2nc(C3CC3)n(CC3CCN(S(=O)(=O)C(F)(F)F)CC3)c2c1` [Example 12], the EC50 in assay [1] and in assay [2] was > 10 µM each time.

In the case of `Cc1nc2ccc(C(c3ccc(Cl)cc3)c3nccs3)cc2n1CCc1cccc(Cl)c1` (stereo not drawn) [Example 437], the values for the EC50 in assay [1] and in assay [2] were 0.192 µM and > 10 µM, respectively.

For the compound `O=C(O)COc1ccc(S(=O)(=O)N2CCC(n3c(C4CC4)nc4ccc(C(c5ccc(Cl)cc5)c5ccc(Cl)cc5)cc43)CC2)cc1` [Example 256], the EC50 in assay [1] was 0.129 µM; in assay [2], > 10 µM.

As for `O=C(O)c1ccc(N[C@H]2CC[C@@H](n3c(C4CC4)nc4ccc(C(c5ccc(Cl)cc5)c5ccc(Cl)cc5)cc43)CC2)cc1` [Example 32], the EC50 in assay [1] is 0.0395 µM; in assay [2] it was 2.16 µM.

Consider `O=C(c1c[nH]nn1)N1CCC(n2c(C3CC3)nc3ccc(C(c4ccccc4)c4ccccc4)cc32)CC1` [Example 198], for which the results for the EC50 in assay [1] and in assay [2] were 4.8 µM and > 10 µM, respectively.

Turning to `Oc1ccc(CCn2c(C3CC3)nc3ccc(C(c4ccc(Cl)cc4)c4ccc(Cl)cc4)cc32)cc1` [Example 37], the values for the EC50 in assay [1] and in assay [2] were 0.0876 µM and 7.26 µM, respectively.

In the case of `NC(=O)c1ccc(CN2CCC(n3c(C4CC4)nc4ccc(C(c5ccc(Cl)cc5)c5ccc(Cl)cc5)cc43)CC2)o1` [Example 131], the EC50 was found to be 0.008 µM in assay [1] and 6.5 µM in assay [2].

On to `CCCc1nc2ccc(C(c3ccc(Cl)cc3)c3nccs3)cc2n1C1CCN(C(=O)OCC)CC1` (stereo not drawn) [Example 416], for which the EC50 in assay [1] was 0.392 µM; in assay [2] it was > 10 µM.

As for `COc1cc(C(c2ccc(Cl)cc2)c2ccc(Cl)cc2)cc2c1nc(C1CC1)n2C1CCN(S(=O)(=O)C(F)(F)F)CC1` [Example 287], the EC50 stood at 0.0024 µM in assay [1] and 4.59 µM in assay [2].

`O=C(O)c1cc(CN2CCC(n3c(C4CC4)nc4ccc(C(c5ccc(Cl)cc5)c5ccc(Cl)cc5)cc43)CC2)cc(C(F)(F)F)c1` [Example 93]: the figures for the EC50 in assay [1] and in assay [2] were 0.0639 µM and 1.75 µM, respectively.

As for `CC(c1cc(C(=O)O)ccn1)N1CCC(n2c(C3CC3)nc3ccc(C(c4ccc(Cl)cc4)c4ccc(Cl)cc4)cc32)CC1` (stereo not drawn) [Example 59], the EC50 in assay [1] was 0.0038 µM; in assay [2], > 21 µM.

Take `Clc1ccc(C(c2ccc(Cl)cc2)c2ccc3nc(C4CC4)n(CCc4cccc(Br)c4)c3c2)cc1` [Example 20]: the figures for the EC50 in assay [1] and in assay [2] were 0.0156 µM and > 10 µM, respectively.

`O=C(NCCO)c1cccc(S(=O)(=O)N2CCC(n3c(C4CC4)nc4ccc(C(c5ccc(Cl)cc5)c5ccc(Cl)cc5)cc43)CC2)c1` [Example 205]: the EC50 in assay [1] was 0.0367 µM; in assay [2] it was 5.73 µM.

Turning to `OC(c1ccc(Cl)cc1)(c1ccc2nc(C3CC3)n(C3CCc4ccccc4C3)c2c1)c1nccs1` (stereo not drawn) [Example 341], the results for the EC50 in assay [1] and in assay [2] were 1.33 µM and > 10 µM, respectively.

Turning to `O=C(O)[C@H]1CC[C@@H](n2c(C3CC3)nc3ccc(C(c4ccc(Cl)cc4)c4ccc(Cl)cc4)cc32)CC1` [Example 137], the 50% effective concentration (EC50) in assay [1] was 9 µM; in assay [2], > 10 µM.

For the compound `O=C(O)c1cccc(NC2CCC(n3c(C4CC4)nc4ccc(C(c5ccc(Cl)cc5)c5ccc(Cl)cc5)cc43)CC2)c1` (stereo not drawn) [Example 40], the EC50 stood at 0.104 µM in assay [1] and 5.12 µM in assay [2].

Regarding `O=C(O)[C@H]1CC[C@H](n2c(C3CC3)nc3ccc(C(c4ccc(Cl)cc4)c4ccc(Cl)cc4)cc32)CC1` [Example 134], the EC50 in assay [1] was 4.34 µM; in assay [2], > 10 µM.

With `COc1cc(S(=O)(=O)N2CCC(n3c(C4CC4)nc4ccc(C(c5ccc(Cl)cc5)c5ccc(Cl)cc5)cc43)CC2)ccc1C(N)=O` [Example 250], the EC50 was 0.0029 µM in assay [1] and 9.4 µM in assay [2].

Regarding `Cc1nc2ccc(C(c3ccc(Cl)cc3)c3nccs3)cc2n1C1CCN(S(=O)(=O)C(F)(F)F)CC1` (stereo not drawn) [Example 386], the EC50 in assay [1] is 0.022 µM; in assay [2] it was > 10 µM.

Regarding `NC(=O)c1ccc(S(=O)(=O)N2CCC(n3c(C4CC4)nc4ccc(C(c5ccc(Cl)cc5)c5ccc(Cl)cc5)cc43)CC2)cc1` [Example 262], the EC50 in assay [1] was 0.0155 µM; in assay [2] it was > 10 µM.

`O=S(=O)(N1CCC(n2c(C3CC3)nc3ccc(C(c4ccc(Cl)cc4)c4nccs4)cc32)CC1)C(F)(F)F` (stereo not drawn) [Example 384]: the results for the EC50 in assay [1] and in assay [2] were 0.012 µM and > 10 µM, respectively.

As to `O=S(=O)(N1CCC(n2c(-c3ccncc3)nc3ccc(C(c4ccc(Cl)cc4)c4nccs4)cc32)CC1)C(F)(F)F` (stereo not drawn) [Example 390], the figures for the EC50 in assay [1] and in assay [2] were 0.242 µM and > 10 µM, respectively.

As for `O=C(Oc1ccccc1)N1CCC(n2c(C3CC3)nc3ccc(C(c4ccc(Cl)cc4)c4ccc(Cl)cc4)cc32)CC1` [Example 61], the figures for the EC50 in assay [1] and in assay [2] were 0.019 µM and > 21 µM, respectively.

On to `COC(=O)c1cccc(OCCn2c(C3CC3)nc3ccc(C(c4ccc(Cl)cc4)c4ccc(Cl)cc4)cc32)c1` [Example 26], for which the figures for the EC50 in assay [1] and in assay [2] were 0.103 µM and 3.31 µM, respectively.

Consider `NC(=O)CC(=O)N1CCC(n2c(C3CC3)nc3ccc(C(c4ccc(Cl)cc4)c4ccc(Cl)cc4)cc32)CC1` [Example 278], for which the EC50 in assay [1] is 0.0505 µM; in assay [2] it was > 10 µM.

For `CCc1nc2ccc(C(c3ccc(Cl)cc3)c3nccs3)cc2n1CCc1cccc(Cl)c1` (stereo not drawn) [Example 409], the EC50 in assay [1] was 0.0478 µM; in assay [2], > 10 µM.

As for `O=C(CCO)N1CCC(n2c(C3CC3)nc3ccc(C(c4ccc(Cl)cc4)c4ccc(Cl)cc4)cc32)CC1` [Example 234], the EC50 in assay [1] amounted to 0.0161 µM; in assay [2], 9.53 µM.

As to `CCOC(=O)N1CCC(n2c(-c3ccc(Cl)cc3)nc3ccc(C(c4ccc(Cl)cc4)c4nccs4)cc32)CC1` (stereo not drawn) [Example 418], the EC50 in assay [1] is 1.08 µM; in assay [2] it was > 10 µM.
